# Like-named read-outs stand apart in the source and are kept apart here.
# Assays:
# [1] = Absorbent body migration rate of sanitary napkin; conditions: horse EDTA blood, after second dropping; agent coated about 5 g/m^2
# Description: (§1) A commercially available sanitary napkin was prepared. The sanitary napkin was formed from a top sheet, formed of a hydrophilic agent-treated air-through nonwoven fabric (composite fiber composed of polyester and polyethylene terephthalate, basis weight: 35 g/m^2), a second sheet, formed of an air-through nonwoven fabric (composite fiber composed of polyester and polyethylene terephthalate, basis weight: 30 g/m^2), an absorbent body comprising pulp (basis weight: 150-450 g/m^2, increased at the center section), an acrylic super-absorbent polymer (basis weight: 15 g/m^2) and tissue as a core wrap, a water-repellent agent-treated side sheet, and a back sheet composed of a polyethylene film.
# (§2) The skin contact surface of the top sheet of the sanitary napkin was coated with the aforementioned blood modifying agent. Each blood modifying agent was used directly, when the blood modifying agent was liquid at room temperature, or when the blood modifying agent was solid at room temperature it was heated to its […], and a control seam HMA gun was used for atomization of the blood modifying agent and coating onto the entire skin contact surface of the top sheet to a basis weight of about 5 g/m^2.
# (§3) (obtained by adding appropriate amount of ethylenediaminetetraacetic acid (hereunder, “EDTA”) to horse blood to prevent coagulation) was dropped through the hole using a pipette (once), and after 1 minute, 3 g of horse EDTA blood at 37±1° C. was again added dropwise through the acrylic board hole with a pipette (twice).
# In addition to the rewetting rate evaluation, the “absorbent body migration rate” was also measured as the time until migration of blood from the top sheet to the absorbent body after the second dropping of blood. The absorbent body migration rate is the time from introducing the blood onto the top sheet, until the redness of the blood […] on the surface and in the interior of the top sheet.
# [2] = at 20° C.; cited from earlier work
# [3] = Water solubility, visual evaluation after 24 hours
# Excerpt: As used herein, the term “solubility” in regard to water solubility includes cases where the sample completely dissolves in deionized water to form a homogeneous mixture, and cases where the sample is completely emulsified. As used herein, “completely” means that no mass of the sample remains in the deionized water.
# [4] = Rewetting rate of sanitary napkin with blood modifying agent-coated top sheet; conditions: horse EDTA blood 3 g twice at 37±1° C.; agent coated about 5 g/m^2 on top sheet
# Description: as §1, §2, §3
Compound,Absorber migration rate [1],further results
"CCCCCCCCCCCCCC(=O)OCCCCCCCCCCCC [ELECTOL WE40, Ester of tetradecanoic acid (C14) and dodecyl alcohol (C12)]",4 s,
CCCCC(=O)CCCC [5-nonanone],,Vapor pressure [2]: about 230 Pa
CCCCCCCCOC(=O)CCCCC(=O)OCCCCCCCC [Dioctyl adipate],6 s,
"CCCCCCCCCCCC(=O)OCC(O)CO (stereo not drawn) [Monomuls 90-L2 lauric acid monoglyceride, lauric acid monoglyceride]",7 s,
"CCCCC(CC)C(=O)OCC(C)(C)COC(=O)C(CC)CCCC (stereo not drawn) [UNISTAR H-208BRS, Neopentylglycol di-2-ethylhexanoate]",5 s,
CCCCC(CC)C(=O)OCC(COC(=O)C(CC)CCCC)OC(=O)C(CC)CCCC (stereo not drawn) [PANACET 800B],3 s,Water solubility [3]: <0.05 g; Rewetting rate (%) [4]: 2.0%
"CCCCCCCCCCCCOC(=O)CCCCCCCCCCC [ELECTOL WE20, Ester of dodecanoic acid (C12) and dodecyl alcohol (C12)]",5 s,
Caprylic acid diglyceride,9 s,
CCCCCCCC(=O)OCC(COC(=O)CCCCCCC)OC(=O)CCCCCCC [PANACET 800],3 s,
CC(C)CCCCCCCCCCCCCCCOC(=O)CC(O)C(=O)OCCCCCCCCCCCCCCCC(C)C (stereo not drawn) [Diisostearyl malate],8 s,Water solubility (g) [3]: 20< g; Rewetting rate (%) [4]: 5.5%
Isopropyl citrate,5 s,
CCCCOC(=O)CC(CC(=O)OCCCC)(OC(C)=O)C(=O)OCCCC [Tributyl O-acetylcitrate],8 s,"Water solubility ([3]; in 100 g of water at 25° C., 24 hours): <0.05 g; Rewetting rate (%) [4]: 6.2%"

# Source: patent publication US9339423B2, “Absorbent article” (UNICHARM CORPORATION, priority 2012, dated 2016)
